{
  "source": "patent US20130236904A1",
  "about": "“METHOD FOR SCREENING FOR MATERIALS FOR PROMOTING THE DIFFERENTIATION OF SKIN CELLS” (AMOREPACIFIC CORPORATION, priority 2010, published 2013)",
  "test_system": "DUOX 1 gene",
  "test": "DUOX 1 gene expression by calcium concentration (Q-RT-PCR)",
  "type": "cell-based",
  "settings": "normal human epidermal keratinocytes, 1.2 mM calcium (high calcium group) vs 120 μM (control), 24 hours; FIG. 1",
  "method": "Normal human epidermal keratinocytes (human epidermal neonatal keratinocyte cells) are purchased from Lonza, Inc. (Walkersville, Md., USA) and subcultured, and then incubated in a CO2 incubator under a condition of 37° C. and 5% CO2. Cell culture is prepared according to the instructions of Lonza, Inc. (Walkersville, Md., USA). KGM-2 bullet kit [bovine pituitary extract (BPE), 2 ml), human epidermal growth factor (hEGF, 0.5 ml), insulin (0.5 ml), hydrocortisone (0.5 ml), transferrin (0.5 ml), epinephrine (0.5 ml), gentamycin sulfate+amphofericin B (GA-1000, 0.5 ml)] are added to KBM-2 (Clonetics CC-3103) medium (500 ml).\n120 μM and 1.2 mM Calcium are added to the culture medium of human epidermal keratinocytes, respectively, and the cells are incubated for 24 hours. Each of them is used as a low calcium group (control group) and a high calcium group (test group). […] The isolated RNA is purified once more using an RNA kit (Qiagen RNeasy kit, Qiagen, Valencia, Calif.) and RNA quality is verified using Agilent 2100 BioAnalyzer (Agilent Technologies, Santa Clara, Calif., USA). cDNA is synthesized from the isolated RNA using a reverse transcription kit (Superscript Reverse Transcriptase (RT) II kit, Invitrogen, Carlsbad, Calif.), and expression of various NOX genes is quantitatively analyzed by means of real time-reverse transcription polymerase chain reaction (Q-RT-PCR). […]",
  "data": [
    {"smiles": "[Ca+2]", "note": "[calcium, Calcium]", "values": [
      {"measurement": "expression of DUOX 1 gene", "value": "more remarkably increased"}
    ]}
  ]
}
